# Measured values reported in patent US9493489B2, “Boron-containing small molecules as anti-protozoal agents” (Anacor Pharmaceuticals, Inc., priority 2008, dated 2016).
# How the values were obtained:
# [1] = In vitro metabolism, mouse/human liver microsomes; format: in vitro ADME; conditions: read-out: in vitro metabolism T1/2 (Mouse/human liver microsomes)
# [2] = test system: cytochrome P450 enzyme (CP1A2, 2C9, 2D6, 3A4, CYP2C19); assay: Cytochrome P450 inhibition; format: in vitro ADME; conditions: CP1A2, 2C9, 2D6 and 3A4
# [3] = test system: LAB 110 EATRO strain of T. b. brucei; assay: Acute Murine Model A; format: in vivo, Swiss Webster mice; conditions: for mice parasite free: ip, BID for 4 days; for T. brucei Minimum Effective Dose: bid × 4 days
# Experimental: Female Swiss Webster mice were inoculated with 250,000 parasites of the LAB 110 EATRO strain of T. b. brucei. 24 hrs post-infection, treatment was initiated BID for 4 days with 20 mg/kg/dose (40 mg/kg/day) intraperitoneally (IP) or orally (PO), 5 mg/kg BID or 10 mg/kg BID orally (PO). N=3 mice/group. Mice were monitored for 30 days for survival. Pentamidine at 2 mg/kg IP was used as the positive control. After 10 days, 0% of the untreated mice were parasite free. After 10 days, 100% of mice treated with 20 mg/kg, ip, BID of 6-(4-chlorophenylsulfinyl)benzo[c][1,2]oxaborol-1(3H)-ol were parasite free. After 30 days, 100% of mice treated with 10 mg/kg, ip, BID of N-(1-hydroxy-1,3-dihydrobenzo[c][1,2]oxaborol-6-yl)-2-(trifluoromethyl)benzamide were parasite free.
# [4] = test system: T. b. brucei or T. b. rhodesiense; assay: Acute Murine Model B; format: in vivo, BALB/C mice; conditions: after 55 days; 50 mg/kg BID IP for 5 days
# Experimental: Female BALB/C mice were inoculated with 600 parasites of T. b. brucei or 10^4 parasites of T. b. rhodesiense. 24 hrs post-infection, treatment with 6-(4-chlorophenylsulfinyl)benzo[c][1,2]oxaborol-1(3H)-ol was initiated BID for 5 days at 50 mg/kg BID intraperitoneally (IP). Mice were monitored for 40-60 days for survival. After 10 days, 20% of the untreated mice were parasite free and at 20 days, 0% of the untreated mice were parasite free. After 55 days, 100% of mice treated with 6-(4-chlorophenylsulfinyl)benzo[c][1,2]oxaborol-1(3H)-ol were parasite free.
# [5] = test system: TREU 667 strain of T. b. brucei; assay: Chronic CNS Model; format: in vivo, mice
# Experimental: Mice were infected with 10,000 parasites of the TREU 667 strain of T. b. brucei. Twenty one days post-infection mice were treated with 50 mg/kg of the compound BID for 7 days intraperitoneally (IP). Positive control mice were treated with Berenil on Day 4 post-infection. Negative control mice were treated with Berenil on Day 21. Since Berenil is not able to penetrate the CNS, mice treated at Day 21 are not able to cure the infection. Starting 1 week after the end of treatment, mice are monitored for parasitemia and sacrificed if parasites are detected in the blood. Mice that survive 6 months are considered “cured.”
# [6] = In vitro metabolism, mouse S9; format: in vitro ADME; conditions: S9 fraction, read-out: in vitro metabolism T1/2 (Mouse S9)
# P-gp transporter = P-gp transporter (Homo sapiens, UniProt P08183); assay: P-gp transporter substrate assessment; format: in vitro ADME
# [7] = test system: L. infantum MHOM/MA(BE)/67; assay: Leishmania infantum macrophage screening assay; format: cell-based; conditions: 120 h, primary screen, reference drugs, primary peritoneal mouse macrophages, 5 days incubation
# Experimental: Parasite and cell cultures. Two Leishmania species (L. infantum MHOM/MA(BE)/67 and L. donovani MHOM/ET/67/L82) were used. The strains were maintained in the Golden Hamster (Mesocricetus auratus). Amastigotes were collected from the spleen of an infected donor hamster using three centrifugation purification steps (300 rpm, keeping the supernatant, 2200 rpm, keeping the supernatants and 3500 rpm, keeping the pellet) and spleen parasite burdens were assessed using the Stauber technique (Stauber L A., Exp Parasitol. 18: 1-11 (1966)). Primary peritoneal mouse macrophages were used as host cell and were collected 2 days after peritoneal stimulation with a 2% potato starch suspension. […]
# Assays were performed in 96-well microtiter plates, each well contained 10 μl of the compound dilutions together with 190 μl of macrophage/parasite inoculum (3×10^3 cells+4.5×10^5 parasites/well). […] After 5 days incubation, parasite burdens (mean number of amastigotes/macrophage) were microscopically assessed after staining the cells with a 10% Giemsa solution. The results were expressed as % reduction in parasite burden compared to untreated control wells and an IC50 (50% inhibitory concentration) was calculated. […]
# Leishmania infantum MHOM/MA(BE)/67 and L. donovani MHOM/ET/67/L82 strains were used and the IC50-values were determined using an extended dose range (2-fold compound dilutions). […]
# Sequence of P-gp transporter (P08183 whole entry): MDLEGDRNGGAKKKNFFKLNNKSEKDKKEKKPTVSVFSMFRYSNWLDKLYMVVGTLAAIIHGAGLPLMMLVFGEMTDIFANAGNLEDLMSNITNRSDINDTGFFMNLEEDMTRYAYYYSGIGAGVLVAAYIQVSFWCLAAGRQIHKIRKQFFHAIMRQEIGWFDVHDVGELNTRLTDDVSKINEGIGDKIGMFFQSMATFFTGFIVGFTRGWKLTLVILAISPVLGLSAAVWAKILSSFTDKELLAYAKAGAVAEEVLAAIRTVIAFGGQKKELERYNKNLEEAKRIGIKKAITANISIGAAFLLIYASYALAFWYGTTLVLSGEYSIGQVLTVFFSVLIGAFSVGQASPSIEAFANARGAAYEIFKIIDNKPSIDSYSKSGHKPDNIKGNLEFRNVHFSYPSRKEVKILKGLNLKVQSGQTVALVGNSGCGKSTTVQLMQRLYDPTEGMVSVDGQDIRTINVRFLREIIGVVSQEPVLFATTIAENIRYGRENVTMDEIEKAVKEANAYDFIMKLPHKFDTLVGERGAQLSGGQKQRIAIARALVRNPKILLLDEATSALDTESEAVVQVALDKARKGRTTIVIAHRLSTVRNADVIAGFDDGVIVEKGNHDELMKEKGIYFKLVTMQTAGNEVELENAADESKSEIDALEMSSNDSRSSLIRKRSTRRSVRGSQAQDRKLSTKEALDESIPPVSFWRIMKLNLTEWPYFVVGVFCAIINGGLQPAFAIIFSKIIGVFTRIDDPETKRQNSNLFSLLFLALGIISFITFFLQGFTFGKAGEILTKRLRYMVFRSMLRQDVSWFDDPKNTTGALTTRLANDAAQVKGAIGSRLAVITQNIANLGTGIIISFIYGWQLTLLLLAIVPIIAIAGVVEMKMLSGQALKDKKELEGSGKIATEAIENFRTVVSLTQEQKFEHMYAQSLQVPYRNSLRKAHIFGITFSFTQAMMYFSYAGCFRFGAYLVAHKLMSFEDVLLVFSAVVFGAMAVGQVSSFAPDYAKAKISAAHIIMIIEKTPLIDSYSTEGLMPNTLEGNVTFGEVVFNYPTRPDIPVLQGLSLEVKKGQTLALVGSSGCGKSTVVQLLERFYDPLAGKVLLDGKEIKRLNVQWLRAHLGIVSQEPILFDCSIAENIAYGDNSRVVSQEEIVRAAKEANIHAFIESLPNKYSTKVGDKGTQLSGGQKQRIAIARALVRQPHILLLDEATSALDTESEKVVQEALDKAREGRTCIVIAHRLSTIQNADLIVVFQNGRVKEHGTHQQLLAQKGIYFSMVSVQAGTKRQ
smiles,measurement,setting,value
"[O-][S+](c1ccc(Cl)cc1)c1ccc2c(c1)B(O)OC2 (stereo not shown) [6-(4-chlorophenylsulfinyl)benzo[c][1,2]oxaborol-1(3H)-ol]",half-life,[1],> 5.83 h
same,inhibition of a cytochrome P450 enzyme,[2],does not inhibit
same,mice parasite free,"[3]; after 10 days, 20 mg/kg",100%
same,mice parasite free,[4],100%
"N=C(N)c1ccc(/N=N/Nc2ccc(C(=N)N)cc2)cc1 [Diminazene, reference compound]",day by which all animals relapsed to exhibit blood parasitemia,[5]; treated on Day 21 post-infection,≤ 53 days
"O=C(Nc1ccc2c(c1)B(O)OC2)c1ccccc1C(F)(F)F [H1, N-(1-hydroxy-1,3-dihydrobenzo[c][1,2]oxaborol-6-yl)-2-(trifluoromethyl)benzamide]",T. brucei Minimum Effective Dose,[3]; route ip,"10 mg/kg, bid × 4 days"
"O=C(Nc1ccc2c(c1)B(O)OC2)c1ccccc1Cl [H7, 2-Chloro-N-(1-hydroxy-1,3-dihydro-benzo[c][1,2]oxaborol-6-yl)-benzamide]",mice parasite free for at least 100 days,[5]; additional results,100%
same,T. brucei Minimum Effective Dose,[3]; route po,"10 mg/kg, bid × 4 days"
"O=C(Nc1ccc2c(c1)B(O)OC2)c1cc(F)ccc1C(F)(F)F [H17, 5-Fluoro-N-(1-hydroxy-1,3-dihydro-benzo[c][1,2]oxaborol-6-yl)-2-trifluoromethyl-benzamide]",mice parasite free for at least 60 days,[5]; additional results,100%
same,T. brucei Minimum Effective Dose,[3]; route po,"5 mg/kg, bid × 4 days"
"O=C(Nc1ccc2c(c1)B(O)OC2)c1ccc(F)cc1C(F)(F)F [H19, 4-Fluoro-N-(1-hydroxy-1,3-dihydro-benzo[c][1,2]oxaborol-6-yl)-2-trifluoromethyl-benzamide]",mice parasite free for at least 100 days,[5]; additional results,100%
same,T. brucei Minimum Effective Dose,[3]; route po,"5 mg/kg, bid × 4 days"
"O=C(Nc1ccc2c(c1)B(O)OC2)c1ccccc1C(F)(F)F [N-(1-hydroxy-1,3-dihydrobenzo[c][1,2]oxaborol-6-yl)-2-(trifluoromethyl)benzamide]",half-life,[1],5.67 to 6 h
same,half-life,[6],3.33 to 3.75 h
same,inhibition of a cytochrome P450 enzyme,[2],does not inhibit
same,substrate for the P-gp transporter,P-gp transporter,not a substrate
same,mice with absence of blood parasites through Day 91,"[5]; 50 mg/kg BID for 7 days IP, starting at Day 21 post-infection",70%
same,mice parasite free,"[3]; after 30 days, 10 mg/kg",100%
CCCCCCCCCCCCCCCCOP(=O)([O-])OCC[N+](C)(C)C [miltefosin],IC50,[7],4.3 µM
